Data on 2 compounds can be found in US20120128654A1, “Allantoin Administration for the Treatment of Neurodegenerative Disease and Neurotrauma” (UNIVERSITY OF CINCINNATI, priority 2009, published 2012).

In one assay the test system is nigral THir neurons. The experiment in a line: Unbiased stereological counts of THir cells in the substantia nigra after striatal 6-OHDA. Type of assay: in vivo, Sprague Dawley rats. The following applies: experiment 2, KO alone vs control pellet, 4 weeks post-6-OHDA. The protocol:
Rats were anesthetized prior to surgery with Equi-Thesin (0.3 ml/100 g body weight i.p.; chloral hydrate 42.5 mg/ml+sodium pentobarbital 9.72 mg/ml), their heads shaved, and then they were placed in a stereotaxic frame. Their skin was swabbed with Betadyne followed by 70% ETOH. The scalp was then opened to expose the skull. Two 1 mm holes were drilled into the skull and rats were injected in two sites in the striatum with 6-OHDA (MP Biomedicals, Solon, Ohio; 5 μg/μl 6-OHDA in 0.2% ascorbic acid, 0.9% saline solution). The coordinates for these injections were AP −1.6 mm, ML +2.4 mm, DV −4.2 mm and AP −0.2 mm, +ML 2.6 mm, DV −7.0 mm. The needle was zeroed at the skull directly above the injection site in order to target the DV coordinate. For each injection, the needle was lowered slowly to the injection site and 1 minute elapsed before injection commenced, 6-OHDA was injected at 0.5 μl/minute and at the end of the injection the needle was held in place for an additional 2 minutes prior to retraction. The wound area was cleaned with Betadine solution and the scalp was closed with surgical wound clips. This lesion paradigm results in a progressive loss of TH phenotype and frank DA cell death.
Animals were deeply anesthetized (60 mg/kg, pentobarbital, i.p.) and perfused intracardially with warm 0.9% saline containing 1 ml/L 10,000 USP heparin followed by ice-cold 0.9% saline. For immunoshistochemistry brains were removed, post fixed for 24 hours in 4% paraformaldehyde and transferred to 30% sucrose in 0.1M PO4 buffer. For determination of purine levels brains were immediately removed and flash frozen in 3-methyl butane. Brains were stored at −80° C. until analysis.
Brains were frozen on dry ice and sectioned at a 40 μm thickness using a sliding microtome. Every sixth section through the SN was processed for labeling with antisera against TH. Following blocking in 10% normal goat serum, tissue was incubated in primary antisera directed against TH (Chemicon MAB318, mouse anti TH 1:4,000) overnight at room temperature. Following primary incubation, sections were incubated in biotinylated secondary antisera against mouse IgG (Chemicon AP124B, 1:400) followed by the Vector ABC detection kit employing horseradish peroxidase (Vector Laboratories, Burlingame, Calif.). Antibody labeling was visualized by exposure to 0.5 mg/ml 3,3′ diaminobenzidine (DAB) and 0.03% H2O2 in Tris buffer. Sections were mounted on subbed slides, dehydrated to xylene and coverslipped with Cytoseal (Richard-Allan Scientific, Waltham, Mass.).
Unbiased stereological counts of THir cells were performed using a BX52 Olympus microscope (Olympus America Inc.) interfaced with Microbrightfield stereological software and a Microfire CCD camera (Optronics, Goleta, Calif.). Utilizing 2 μm guard zones and a 50 μm×50 μm counting frame a grid size of 112 μm×183 μm was employed to assure that all coefficient of error values were ≦0.10. Using the optical fractionator principle, the regions of interest were individually outlined under a low magnification (1.25×). Using a 60× magnification lens with a 1.4 N/A the section thickness was empirically determined by first bringing the top of the section into focus and then using Microbrightfield software to step through the z-axis in 1 μm increments until the very bottom of the section was in focus. […]

In a further assay the test system is striatal 6-OHDA infusion. To be noted: peripheral adenosine, Wistar rats; cited from earlier work.

Turning to `O=C([O-])c1nc(=O)[nH]c(=O)[nH]1.[K+]` [KO, potassium oxonate], the “number of THir neurons in either the intact or lesioned SN” value in the assay with nigral THir neurons is “no significant impact”.
Regarding `Nc1ncnc2c1ncn2[C@@H]1O[C@H](CO)[C@@H](O)[C@H]1O` [adenosine], the “neuroprotection against striatal 6-OHDA infusion” value in the assay with striatal 6-OHDA infusion was “functional neuroprotection”.
